Read-outs that look alike come from different tables or passages of the source.
Key:
A2780 cells = assay: In-vitro cell proliferation assay (SRB), A2780 cells; type: cell-based; conditions: Homo sapiens, A2780, 72 h, A2780 cells, 72 hours, read-out: A2780 IC50
In short: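 Cells were plated overnight at 37° C., 5% CO2, then exposed to serially diluted compounds (0.1% DMSO final) for 72 hours. Viable cells were measured by sulforhodamine B staining after TCA fixation, read at 570 nm; media-only background was subtracted before % inhibition was calculated.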

NAMPT = target: T1, NAMPT (Homo sapiens, UniProt P43490); assay: Biochemical inhibition assay: NAMPT enzymatic reaction, NMN quantified by mass spectrometry; conditions: read-out: Biochem IC50
T1 construct: His tag; host or cells: E. coli
In short: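 Inhibition of E. coli-expressed His-tagged human NAMPT, measured as NMN formation by mass spectrometry after a 30 min room-temperature reaction containing 1 μM NAM, 100 μM PRPP and 2.5 mM ATP.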

T1 sequence (P43490 whole entry): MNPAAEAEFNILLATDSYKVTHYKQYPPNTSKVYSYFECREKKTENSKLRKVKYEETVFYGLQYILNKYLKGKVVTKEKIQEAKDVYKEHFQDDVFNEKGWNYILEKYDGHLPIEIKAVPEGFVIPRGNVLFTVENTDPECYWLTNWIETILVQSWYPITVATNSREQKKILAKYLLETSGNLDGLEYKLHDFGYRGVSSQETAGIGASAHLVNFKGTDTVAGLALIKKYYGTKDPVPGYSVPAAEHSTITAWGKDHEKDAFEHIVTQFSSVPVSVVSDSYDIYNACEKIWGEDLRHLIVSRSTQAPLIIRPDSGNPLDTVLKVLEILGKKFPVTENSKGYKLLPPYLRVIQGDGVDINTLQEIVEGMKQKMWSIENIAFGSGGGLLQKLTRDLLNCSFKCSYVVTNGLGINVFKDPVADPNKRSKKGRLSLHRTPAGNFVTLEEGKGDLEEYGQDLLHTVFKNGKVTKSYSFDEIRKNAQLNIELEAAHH

Compound: Cc1cc(C)cc(S(=O)(=O)c2ccc(CNC(=O)c3cc4cnccc4[nH]3)cc2)c1 [N-({4-[(3,5-dimethylbenzene)sulfonyl]phenyl}methyl)-1H-pyrrolo[3,2-c]pyridine-2-carboxamide]
- IC50 (A2780 cells; SRB assay): 2 nM
- IC50 (NAMPT; NAMPT enzymatic reaction): 9 nM

Compound: CCOc1ccc(S(=O)(=O)c2ccc(CNC(=O)c3cc4ccncc4s3)cc2)c(C)c1
- IC50 (A2780 cells; SRB): 13.2 nM
- IC50 (NAMPT; NAMPT enzymatic reaction): 1.2 nM

Compound: O=C(NCc1ccc(S(=O)(=O)c2cccc(OC(F)(F)F)c2)cc1)c1cnc2nccn2c1
- IC50 (A2780 cells; SRB): 2.7 nM
- IC50 (NAMPT; NAMPT enzymatic assay): 2.5 nM

Compound: O=C(NCc1ccc(S(=O)(=O)c2ccc(N3CCOCC3)nc2)cc1)c1ccc2nccn2c1 [N-({4-[6-(morpholin-4-yl)pyridine-3-sulfonyl]phenyl}methyl)imidazo[1,2-a]pyridine-6-carboxamide]
- IC50 (A2780 cells; SRB): 1.5 nM
- IC50 (NAMPT; NAMPT enzymatic assay): 9 nM

Compound: O=C(NCc1ccc(S(=O)(=O)c2ccc(C(F)(F)F)cn2)cc1)c1cc2ccncc2o1 [N-({4-[5-(trifluoromethyl)pyridine-2-sulfonyl]phenyl}methyl)furo[2,3-c]pyridine-2-carboxamide]
- IC50 (A2780 cells; SRB): 100 to 1000 nM
- IC50 (NAMPT; NAMPT enzymatic assay): 37 nM

Compound: Cn1ncc2cc(S(=O)(=O)c3ccc(CNC(=O)c4ccc5nccn5c4)cc3)ccc21 [N-{[4-(1-methyl-1H-indazole-5-sulfonyl)phenyl]methyl}imidazo[1,2-a]pyridine-6-carboxamide]
- IC50 (A2780 cells; SRB): 1.6 nM
- IC50 (NAMPT; NAMPT enzymatic assay): 4 nM

Compound: O=C(NCc1ccc(S(=O)(=O)c2cccc3c2OCO3)cc1)c1cc2ccncc2s1 [N-{[4-(2H-1,3-benzodioxole-4-sulfonyl)phenyl]methyl}thieno[2,3-c]pyridine-2-carboxamide]
- IC50 (A2780 cells; SRB): 7.2 nM
- IC50 (NAMPT; NAMPT enzymatic assay): 3.3 nM

Compound: O=C(NCc1ccc(S(=O)(=O)c2cccc3c2Oc2ccccc2S3)cc1)c1cnc2[nH]ncc2c1 [N-{[4-(phenoxathiine-4-sulfonyl)phenyl]methyl}-1H-pyrazolo[3,4-b]pyridine-5-carboxamide]
- IC50 (A2780 cells; SRB): 20.4 nM
- IC50 (NAMPT; NAMPT enzymatic assay): 14.8 nM

Compound: Cc1ccc(Cl)cc1S(=O)(=O)c1ccc(CNC(=O)c2cc3ccncc3s2)cc1
- IC50 (A2780 cells; SRB): 6.6 nM
- IC50 (NAMPT; NAMPT enzymatic reaction): 4.8 nM

Compound: Cc1cc(F)ccc1S(=O)(=O)c1ccc(CNC(=O)c2cnc3nccn3c2)cc1
- IC50 (A2780 cells; SRB): 100 to 1000 nM
- IC50 (NAMPT; NAMPT enzymatic reaction): 13 nM

Compound: O=CNc1ccc(C(=O)NCc2ccc(S(=O)(=O)c3cc(F)cc(F)c3)cc2)cn1 [5-N-({4-[(3,5-difluorobenzene)sulfonyl]phenyl}methyl)pyridine-2,5-diamido]
- IC50 (A2780 cells; SRB): 661 nM
- IC50 (NAMPT; NAMPT enzymatic reaction): 1000 to 10000 nM

Compound: CCCCOc1cccc(F)c1S(=O)(=O)c1ccc(CNC(=O)c2cc3cnccc3[nH]2)cc1
- IC50 (A2780 cells; SRB): 5.6 nM
- IC50 (NAMPT; NAMPT enzymatic reaction): 8.8 nM

Compound: Cn1ncc2c(S(=O)(=O)c3ccc(CNC(=O)c4cnc5nccn5c4)cc3)cccc21 [N-{[4-(1-methyl-1H-indazole-4-sulfonyl)phenyl]methyl}imidazo[1,2-a]pyrimidine-6-carboxamide]
- IC50 (A2780 cells; SRB): 10.3 nM
- IC50 (NAMPT; NAMPT enzymatic assay): 4.2 nM

Compound: O=C(NCc1ccc(S(=O)(=O)c2ccccc2C(F)(F)F)cc1)c1cc2cnccc2[nH]1 [N-[(4-{[2-(trifluoromethyl)benzene]sulfonyl}phenyl)methyl]-1H-pyrrolo[3,2-c]pyridine-2-carboxamide]
- IC50 (A2780 cells; SRB assay): 25 nM
- IC50 (NAMPT; NAMPT enzymatic reaction): 22 nM

Compound: COc1cc(C)cc(S(=O)(=O)c2ccc(CNC(=O)c3cc4ccncc4o3)cc2)c1
- IC50 (A2780 cells; SRB): 1.6 nM
- IC50 (NAMPT; NAMPT enzymatic reaction): 2.2 nM

Compound: O=C(NCc1ccc(S(=O)(=O)c2cc(Cl)ccc2OCC(F)F)cc1)c1ccc2nccn2c1
- IC50 (A2780 cells; SRB): 0.3 nM
- IC50 (NAMPT; NAMPT enzymatic assay): 2 nM

Compound: COc1ccc(OC)c(S(=O)(=O)c2ccc(CNC(=O)c3cc4ccncc4s3)cc2)c1 [N-({4-[(2,5-dimethoxybenzene)sulfonyl]phenyl}methyl)thieno[2,3-c]pyridine-2-carboxamide]
- IC50 (A2780 cells; SRB): 2.3 nM
- IC50 (NAMPT; NAMPT enzymatic assay): 4 nM

Compound: CCCCOc1ccc(S(=O)(=O)c2ccc(CNC(=O)c3ccc4nccn4c3)cc2)cc1
- IC50 (A2780 cells; SRB): 2.8 nM
- IC50 (NAMPT; NAMPT enzymatic reaction): 3.8 nM

Compound: COc1ccccc1S(=O)(=O)c1ccc(CNC(=O)c2cnc3[nH]ncc3c2)cc1 [N-({4-[(2-methoxybenzene)sulfonyl]phenyl}methyl)-1H-pyrazolo[3,4-b]pyridine-5-carboxamide]
- IC50 (A2780 cells; SRB): 61.8 nM
- IC50 (NAMPT; NAMPT enzymatic reaction): 68.3 nM

From patent US12336981B2, “Compounds and compositions for the inhibition of NAMPT” (Valo Health, Inc., priority 2010, dated 2025)
